Measured values as given in US9233163B2, “Hydrolytically releasable prodrugs for sustained release nanoparticle formulations” (The Children's Hospital of Philadelphia, priority 2010, dated 2016).

Assays:
[1] = system: rat aortic smooth muscle cells (A10); assay: A10 growth inhibition by PTX derivatives, Alamar Blue assay; type: cell-based; details: free compound, 2 hr incubation, cell viability 7 days post treatment vs untreated cells
Experimental: Cells seeded at 10% confluency on 96-well plates were incubated with the compounds at indicated PTX molar equivalent doses for 2 hr, and the cell viability was compared to that of untreated cells 7 days post treatment using the Alamar Blue assay.

A10 cells [2] = assay: Magnetically guided A10 growth inhibition by MNP loaded with PTX derivatives; type: cell-based, rat; details: compounds formulated in MNP, 5 min exposure, high gradient magnetic field (32.5 T/m), viability 7 days post treatment
Experimental: Polylactide-based MNP were formulated with inclusion of nanocrystalline magnetite by a modification of the emulsification-solvent evaporation method. Ferric chloride hexahydrate and ferrous chloride tetrahydrate (170 and 62.5 mg, respectively) were dissolved in ethanol (2.5 mL) and mixed with freshly prepared aqueous sodium hydroxide (0.5 N, 5 mL). The precipitate was heated for 1 min at 90° C., cooled on ice, and separated on a magnet. The obtained magnetite was stirred with a solution of oleic acid in ethanol (150 mg in 2 mL) at 90° C. for 5 min. Free oleic acid was separated by deionized water. Magnetite was washed with ethanol, dispersed in 8 mL of chloroform, and used to dissolve 100 mg of poly(D,L-lactide) (molecular weight 75,000-120,000 Da) and 15 mg PTX or a PTX prodrug. The organic dispersion was emulsified by sonication on ice in 10 mL of an aqueous solution of bovine serum albumin (1% w/v), and the organic solvent was evaporated under reduced pressure. MNP were washed twice by magnetic decantation, resuspended in 6 mL of aqueous trehalose (10% w/v), passed through a sterile 5 μm filter unit and lyophilized. […]
Cells were incubated with indicated doses of the compounds formulated in MNP for 5 min with or without (mag+ or mag−) the presence of a high gradient magnetic field (average field gradient of 32.5 T/m). Cell viability was determined as above 7 days post treatment.

[3] = In vitro release kinetics and recovery from MNP, external sink method; type: physicochemical; details: for total recovered (release medium samples and upon experiment termination): MNP diluted 1:500 in phosphate buffer with 2% bovine serum albumin, heptane/1-octanol acceptor, 5-day experiment; for initial drug payload still present in the MNP: at the end of the 5-day experiment, extraction in 1-octanol
Experimental: The release of 2′-PTX-glycol-suc-Chol from MNP was measured in comparison with PTX using the external sink method. A 1:1 mixture of heptane and 1-octanol was used as the acceptor medium to ensure perfect sink conditions. MNP were diluted 1:500 in phosphate buffer containing 2% bovine serum albumin, included to more closely model in vivo conditions. Released drug was assayed spectrophotometrically in the acceptor phase at predetermined timepoints (λ=230 nm). After five days the amount of the compounds remaining in MNP was measured following extraction in 1-octanol.

[4] = Drug release from typical PTX MNP under sink conditions; type: physicochemical; details: MNP comprising PTX, iron oxides and polylactide carrier
Description: For example in a typical MNP comprising PTX, iron oxides and a polylactide carrier, about 50% and 80% of the drug is released under sink conditions after 4 hr and 24 hr, respectively. This may be too fast for optimal restenosis inhibition, given that the period of vulnerability to restenotic activity may extend for several weeks. It is believed that the large surface area to volume ratio and small linear dimensions of nanoparticles, combined with the relatively low molecular weight of PTX and limited affinity toward the carrier particles, result in the excessively rapid PTX escape from the nanoparticles. To deal with this problem, it has been found necessary to greatly increase the affinity of the PTX for the polymeric carrier. This has now been done by binding PTX to a structure (hereinafter “anchor”) that limits the diffusivity within the MNP compared with that of unbound PTX itself. The resulting PTX-anchor conjugate is a PTX prodrug. Prodrugs according to the invention are converted to the corresponding drugs (e.g., PTX) in vivo in a patient, which may be a human or other animal. The prodrug can be incorporated in the MNP with a high entrapment yield and can provide protracted drug release at the site of arterial injury.

A10 cells [5] = assay: A10 inhibition by MNP after 4-day incubation with fetal bovine serum at 37° C. (recovered activity); type: cell-based, rat; details: MNP incubated 4 days in FBS at 37° C. vs fresh MNP, magnetic conditions, 5-20 ng drug per well
Experimental: MNP loaded with 2′-PTX-glycol-suc-Chol or PTX at 1 mg/mL were diluted 1:500 in fetal bovine serum (FBS), placed on a tube rotator and incubated for 4 days at 37° C. modeling the exposure of stent-targeted MNP to the in vivo environment. MNP suspensions were then applied to A10 cells for 5 min in the presence of a high gradient magnetic field (See Example 9) in a dose range equivalent to 5-20 ng drug per well based on their initial drug loading. Their growth inhibitory effect was compared with that of fresh MNP applied in equivalent dilutions under magnetic conditions, and the ratio between their respective inhibition efficiencies was plotted as Recovered activity, % of control (See FIG. 4).

[6] = Model experiments estimating stability of ester bonds (half-hydrolysis in phosphate buffer); type: physicochemical; details: pH=7 phosphate buffer at 21-22° C.
Description: Based on the results of the model experiments, paclitaxel 2′-esters with N-acylglycines and acyloxyacetic acids containing highly hydrophobic residues (e.g., derived from cholesterol or tocopherol) are the most suitable for encapsulation in sustained release nanoparticle formulations as rapidly cleavable PTX prodrugs. In the context of in-stent restenosis therapy, these unique designs more effectively confine the drug formulated in magnetically targeted MNP to the stented area. Importantly, the by-products of the prodrug degradation deriving from the anchor and the linking group are all biocompatible endogenous small molecules, rapidly eliminated via natural metabolic pathways.

SMILES: CC(=O)O[C@H]1C(=O)[C@@]2(C)[C@H]([C@H](OC(=O)c3ccccc3)[C@]3(O)CC(OC(=O)[C@H](OC(=O)CNC(=O)CCC(=O)O[C@H]4CC[C@@]5(C)C(=CCC6C7CCC(C(C)CCCC(C)C)[C@@]7(C)CCC65)C4)[C@@H](NC(=O)c4ccccc4)c4ccccc4)C(C)=C1C3(C)C)[C@]1(OC(C)=O)CO[C@@H]1C[C@@H]2O (stereo partly shown) [2′-PTX-glycine-suc-Chol, PTX 2′-[N-(3-cholesteryloxycarbonyl)propionyl]glycinate]
- A10 cell growth inhibition [1]: dose-dependent A10 cell growth inhibition
- A10 cell growth inhibition, magnetic field (mag+) (A10 cells [2]): comparable to that of MNP loaded with PTX

SMILES: CC(=O)O[C@H]1C(=O)[C@@]2(C)[C@H]([C@H](OC(=O)c3ccccc3)[C@]3(O)C[C@H](OC(=O)[C@H](O)[C@@H](NC(=O)c4ccccc4)c4ccccc4)C(C)=C1C3(C)C)[C@]1(OC(C)=O)CO[C@@H]1C[C@@H]2O [PTX, Paclitaxel]
- total recovered (release medium samples and upon experiment termination) [3]: 55%
- initial drug payload still present in the MNP [3]: none
- drug released ([4]; after 4 hr): about 50%
- drug released ([4]; after 24 hr): ~80%

SMILES: CC(=O)O[C@H]1C(=O)[C@@]2(C)[C@H]([C@H](OC(=O)c3ccccc3)[C@]3(O)CC(OC(=O)[C@H](OC(=O)COC(=O)CCC(=O)O[C@H]4CC[C@@]5(C)C(=CCC6C7CCC(C(C)CCCC(C)C)[C@@]7(C)CCC65)C4)[C@@H](NC(=O)c4ccccc4)c4ccccc4)C(C)=C1C3(C)C)[C@]1(OC(C)=O)CO[C@@H]1C[C@@H]2O (stereo partly shown) [2′-PTX-glycol-suc-Chol, PTX 2′-(3-cholesteryloxycarbonyl)propionyloxyacetate]
- A10 cell growth inhibition [1]: dose-dependent A10 cell growth inhibition
- A10 cell growth inhibition, magnetic field (mag+) (A10 cells [2]): comparable to that of MNP loaded with PTX
- total recovered (release medium samples and upon experiment termination) [3]: 81%
- initial drug payload still present in the MNP [3]: 30%
- release kinetics from MNP vs. PTX ([3]; external sink method, 5 days): significantly slower release kinetics
- Recovered activity, % of control (fraction of initial activity retained) (A10 cells [5]): retained a larger fraction of its initial activity compared to PTX

SMILES: CCOC(=O)COC(C)=O [ethyl ester of acetoxyacetic acid]
- time of half-hydrolysis [6]: 9 days

SMILES: CC(=O)OC1C(=O)C2(C)C(O)CC3OCC3(OC(C)=O)C2C(OC(=O)c2ccccc2)C2(O)CC(OC(=O)C(OC(=O)CCC(=O)OC3CCC4(C)C(=CCC5C4CCC4(C)C(C(C)CCCC(C)C)CCC54)C3)C(NC(=O)c3ccccc3)c3ccccc3)C(C)=C1C2(C)C (stereo not shown) [2′-PTX-suc-Chol]
- A10 cell growth inhibition [1]: no growth inhibition

SMILES: CCOC(=O)CNC(C)=O [ethyl ester of N-acetylglycine, ethyl esters of N-acetylglycine]
- time of half-hydrolysis [6]: 27 days

SMILES: CCOC(C)=O [ethyl acetate]
- time of half-hydrolysis [6]: approximately 200 days
